Measurements from the supplement of paper PMC10307832.

Key:
Test in all cases: relative viability (nuclei count vs DMSO), 5 days (fraction); higher = more cells survive
PAC-1 + Pictilisib = compound: C=CCc1cccc(/C=N/NC(=O)CN2CCN(Cc3ccccc3)CC2)c1O [PAC-1] + CS(=O)(=O)N1CCN(Cc2cc3nc(-c4cccc5[nH]ncc45)nc(N4CCOCC4)c3s2)CC1 [Pictilisib] (partner 1 µM)
Summary of the method: (§1)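 Relative viability was taken as the ratio of nuclei in treated wells to nuclei in vehicle wells. Lung cancer cell lines in 1536-well plates received compounds by pin tool one day after seeding, either one drug alone or a fixed anchor-drug dose plus five library-drug doses (not always all listed) in √10 steps. Nuclei were counted on 4× images after 5 days of treatment, and values are medians of duplicate plates.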

Ibrutinib + Pictilisib = compound: C=CC(=O)N1CCC[C@@H](n2nc(-c3ccc(Oc4ccccc4)cc3)c3c(N)ncnc32)C1 [Ibrutinib] + CS(=O)(=O)N1CCN(Cc2cc3nc(-c4cccc5[nH]ncc45)nc(N4CCOCC4)c3s2)CC1 [Pictilisib] (partner 1 µM)
Summary of the method: as §1

BMX-IN-1 + Pictilisib = compound: C=CC(=O)Nc1cc(-n2c(=O)ccc3cnc4ccc(-c5ccc(NS(C)(=O)=O)cc5)cc4c32)ccc1C [BMX-IN-1] + CS(=O)(=O)N1CCN(Cc2cc3nc(-c4cccc5[nH]ncc45)nc(N4CCOCC4)c3s2)CC1 [Pictilisib] (partner 1 µM)
Summary of the method: as §1

Ibrutinib + Decitabine = compound: C=CC(=O)N1CCC[C@@H](n2nc(-c3ccc(Oc4ccccc4)cc3)c3c(N)ncnc32)C1 [Ibrutinib] + Nc1ncn([C@H]2C[C@H](O)[C@@H](CO)O2)c(=O)n1 [Decitabine] (partner 2 µM)
Summary of the method: as §1

| Cell Line | relative viability (PAC-1 + Pictilisib; first compound 0.02 µM) | relative viability (PAC-1 + Pictilisib; first compound 0.06325 µM) | relative viability (PAC-1 + Pictilisib; first compound 0.2 µM) | relative viability (PAC-1 + Pictilisib; first compound 2 µM) | relative viability (Ibrutinib + Pictilisib; first compound 0.005 µM) | relative viability (Ibrutinib + Pictilisib; first compound 0.01581 µM) | relative viability (Ibrutinib + Pictilisib; first compound 0.05 µM) | relative viability (Ibrutinib + Pictilisib; first compound 0.5 µM) | relative viability (BMX-IN-1 + Pictilisib; first compound 0.02 µM) | relative viability (BMX-IN-1 + Pictilisib; first compound 0.2 µM) | relative viability (BMX-IN-1 + Pictilisib; first compound 0.6325 µM) | relative viability (BMX-IN-1 + Pictilisib; first compound 2 µM) | relative viability (Ibrutinib + Decitabine; first compound 0.005 µM) | relative viability (Ibrutinib + Decitabine; first compound 0.01581 µM) | relative viability (Ibrutinib + Decitabine; first compound 0.5 µM) | relative viability (Ibrutinib + Pictilisib; first compound 0.1581 µM) | relative viability (Ibrutinib + Decitabine; first compound 0.05 µM) | relative viability (Ibrutinib + Decitabine; first compound 0.1581 µM) |
| --- | --- | --- | --- | --- | --- | --- | --- | --- | --- | --- | --- | --- | --- | --- | --- | --- | --- | --- |
| NCI-H2405 | 0.44 | 0.455 | 0.45 | 0.376 | 0.33 | 0.384 | 0.282 | 0.485 | 0.505 | 0.444 | 0.484 | 0.393 | 0.622 | 0.715 | 0.682 |  |  |  |
| A-427 | 0.689 | 0.748 | 0.724 | 0.831 | 0.553 | 0.623 | 0.719 | 0.743 | 0.796 | 0.83 | 0.948 | 0.78 | 0.59 | 0.574 | 0.549 | 0.405 | 0.576 |  |
| SK-LU-1 | 0.557 | 0.607 | 0.457 | 0.512 | 0.381 | 0.509 | 0.542 | 0.549 | 0.579 | 0.567 | 0.675 | 0.481 | 0.592 | 0.664 | 0.617 | 0.55 | 0.626 | 0.571 |
| NCI-H2170 | 0.28 | 0.315 | 0.362 | 0.27 | 0.234 | 0.312 | 0.243 | 0.169 | 0.319 | 0.312 | 0.319 | 0.307 | 0.438 | 0.47 | 0.173 | 0.261 | 0.389 | 0.457 |
| RERF-LC-KJ | 0.553 | 0.471 | 0.423 | 0.552 | 0.482 | 0.518 | 0.46 | 0.441 | 0.6 | 0.64 | 0.607 | 0.484 | 0.599 | 0.654 | 0.728 | 0.548 | 0.561 | 0.693 |
| LXF-289 | 0.846 | 0.727 | 0.739 | 0.792 | 0.733 | 0.724 | 0.802 | 0.758 | 0.808 | 0.863 | 0.88 | 0.761 | 0.357 | 0.295 | 0.342 | 0.794 | 0.381 | 0.38 |
| LC-2-ad | 0.523 | 0.588 | 0.511 | 0.56 | 0.335 | 0.19 | 0.53 | 0.299 | 0.645 | 0.555 | 0.619 | 0.482 | 0.842 | 0.776 | 0.765 | 0.525 | 0.774 | 0.814 |
| NCI-H23 | 0.365 | 0.461 | 0.414 | 0.473 | 0.319 | 0.458 | 0.562 | 0.395 | 0.483 | 0.495 | 0.582 | 0.411 | 0.313 | 0.343 | 0.339 | 0.391 | 0.339 | 0.298 |
